Results: ChEMBL document CHEMBL5096162, “A review on ferulic acid and analogs based scaffolds for the management of Alzheimer's disease” (Eur J Med Chem, 2021)

Columns and labels:
Cholinesterase [1] = biological target: T1, Cholinesterase (Homo sapiens, UniProt P06276); test: Inhibition of human BuchE preincubated for 30 mins followed by substrate addition using butyrylthiocholine iodide as substrate by Ellman's method
[2] = Metal chelating activity assessed as Fe2+ -ferrozoine complex formation incubated for 10 mins followed by ferrozine addition and further incubated for 10 mins by spectrophotometric assay; conditions: time 20.0 min
[3] = Antioxidant activity of compound assessed as trolox equivalent of AAPH radical scavenging activity preincubated for 15 mins followed by AAPH addition and measured for 120 mins by ORAC-FL assay; assay type: functional; conditions: time 135.0 min
[4] = Antioxidant activity assessed as DPPH radical scavenging activity measured for 45 mins by spectrophotometric analysis; assay type: functional
[5] = Antioxidant activity assessed as ABTS radical cation scavenging activity measured every minute for 15 mins by spectrophotometeric analysis; assay type: functional
[6] = Antioxidant activity assessed as GO radical cation scavenging activity measured for 30 mins by spectrophotometeric analysis; assay type: functional
[7] = Antioxidant activity assessed as DPPH radical scavenging activity at 200 uM incubated for 2 hrs in dark by spectrophotometric analysis; assay type: functional
[8] = Antioxidant activity of compound assessed as trolox equivalent of AAPH radical scavenging activity preincubated for 15 mins followed by AAPH addition and measured every 1 min for 60 mins by ORAC-FL assay; assay type: functional; conditions: time 75.0 min
[9] = biological target: Amyloid-beta precursor protein (Homo sapiens) (UniProt P05067); test: Inhibition of self-induced amyloid beta (1 to 40) (unknown origin) aggregation at 20 uM incubated for 48 hrs by ThT-based fluorimetric assay
[10] = Antioxidant activity assessed as DPPH radical scavenging activity incubated for 30 mins by UV-Vis spectrophotometric analysis; assay type: functional
[11] = Antioxidant activity assessed as trolox equivalent of ABTS radical cation scavenging activity measured after 6 mins by UV spectrophotometeric analysis; assay type: functional
[12] = Antioxidant activity assessed as DPPH radical scavenging activity measured for 30 mins in dark by UV-Vis spectrophotometric analysis; assay type: functional
Acetylcholinesterase [13] = biological target: T2, Acetylcholinesterase (Electrophorus electricus, UniProt O42275); test: Inhibition of electric eel AChE preincubated for 15 mins followed by substrate addition using acetylthiocholine iodide as substrate by Ellman's method
[14] = Antioxidant activity assessed as DPPH radical scavenging activity at 1 mM incubated for 30 mins by microplate reader method; assay type: functional
[15] = biological target: Amyloid-beta precursor protein (Homo sapiens) (UniProt P05067); test: Inhibition of amyloid beta (1 to 42) (unknown origin) self aggregation assessed as reduction in fluorescence intensity at 80 uM incubated for 24 hrs by ThT-based fluorimetric assay
[16] = biological target: Acetylcholinesterase (Electrophorus electricus) (UniProt O42275); test: Inhibition of electric eel AChE at 1 uM by Ellman's method
[17] = biological target: Cholinesterase (Equus caballus) (UniProt P81908); test: Inhibition of equine BuChE at 1 uM by Ellman's method
[18] = Antioxidant activity assessed as trolox equivalent of ORAC radical scavenging activity by ORAC-FL assay; assay type: functional
Cholinesterase [19] = biological target: T3, Cholinesterase (Equus caballus, UniProt P81908); test: Inhibition of equine serum BuchE preincubated for 6 mins followed by substrate addition using butyrylthiocholine iodide as substrate by DTNB reagent based Ellman method
[20] = biological target: Amyloid-beta precursor protein (Homo sapiens) (UniProt P05067); test: Inhibition of self-induced amyloid beta (1 to 42) (unknown origin) aggregation at 20 uM incubated for 46 to 48 hrs in dark by ThT-based fluorimetric assay; conditions: time 46-48 hrs
Cholinesterase [21] = biological target: T1, Cholinesterase
Description: Inhibition of human BuchE preincubated for 6 mins followed by substrate addition using butyrylthiocholine iodide as substrate by DTNB reagent based Ellman method

HT-22 = test: Neuroprotection against iodoacetic acid-induced ATP depletion in mouse HT-22 cells assessed as increase in cell viability at 1 uM incubated for 2 hrs in medium with compound and iodoacetic acid followed by medium change with compound and measured after 24 hrs by MTT assay; assay type: functional; conditions: time 26 hrs
Cholinesterase [22] = biological target: T3, Cholinesterase; test: Inhibition of equine BuChE by Ellman's method
[23] = biological target: Amyloid-beta precursor protein (Homo sapiens) (UniProt P05067); test: Inhibition of amyloid beta (1 to 42) (unknown origin) self aggregation assessed as reduction in fluorescence intensity at 20 uM incubated for 24 hrs by ThT-based fluorimetric assay
Acetylcholinesterase [24] = biological target: T2, Acetylcholinesterase; test: Inhibition of electric eel AChE preincubated for 5 mins followed by substrate addition using acetylthiocholine iodide as substrate by Ellman's method
Acetylcholinesterase [25] = biological target: Acetylcholinesterase (Homo sapiens, UniProt P22303); test: Inhibition of human AchE using acetylthiocholine iodide as substrate by Ellman colorimetric assay
Cholinesterase [26] = biological target: T1, Cholinesterase; test: Inhibition of human BuchE using butyrylthiocholine iodide as substrate by Ellman colorimetric assay
SH-SY5Y = test: Neuroprotective activity against amyloid beta-induced cytotoxicity in human SH-SY5Y cells assessed as cell viability at 10 to 80 uM by MTT assay; assay type: functional; conditions: dose 10-80 µM
Beta-secretase 1 = Beta-secretase 1 (Homo sapiens, UniProt P56817); test: Inhibition of human BACE-1 by FRET-based fluorometric assay
Cholinesterase [27] = biological target: T3, Cholinesterase; test: Inhibition of equine serum BuChE preincubated for 5 mins followed by substrate addition and measured after 5 mins using S-butyrylthiocholine iodide as substrate by Ellman's method

T3 sequence (P81908 whole entry): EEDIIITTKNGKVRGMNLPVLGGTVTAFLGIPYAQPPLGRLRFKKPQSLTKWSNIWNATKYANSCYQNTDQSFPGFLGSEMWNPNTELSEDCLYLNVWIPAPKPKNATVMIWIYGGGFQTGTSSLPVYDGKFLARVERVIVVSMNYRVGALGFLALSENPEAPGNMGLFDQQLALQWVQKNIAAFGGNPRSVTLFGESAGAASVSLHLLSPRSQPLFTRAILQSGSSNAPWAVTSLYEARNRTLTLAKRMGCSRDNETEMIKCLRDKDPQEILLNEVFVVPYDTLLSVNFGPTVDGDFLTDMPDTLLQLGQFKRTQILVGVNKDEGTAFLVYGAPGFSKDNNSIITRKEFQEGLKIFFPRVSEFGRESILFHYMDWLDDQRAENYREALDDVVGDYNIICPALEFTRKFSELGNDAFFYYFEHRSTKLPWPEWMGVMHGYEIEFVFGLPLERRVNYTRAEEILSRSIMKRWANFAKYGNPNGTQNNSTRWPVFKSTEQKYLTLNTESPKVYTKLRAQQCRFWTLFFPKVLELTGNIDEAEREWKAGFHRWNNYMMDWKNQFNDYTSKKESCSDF
T2 sequence (O42275 whole entry): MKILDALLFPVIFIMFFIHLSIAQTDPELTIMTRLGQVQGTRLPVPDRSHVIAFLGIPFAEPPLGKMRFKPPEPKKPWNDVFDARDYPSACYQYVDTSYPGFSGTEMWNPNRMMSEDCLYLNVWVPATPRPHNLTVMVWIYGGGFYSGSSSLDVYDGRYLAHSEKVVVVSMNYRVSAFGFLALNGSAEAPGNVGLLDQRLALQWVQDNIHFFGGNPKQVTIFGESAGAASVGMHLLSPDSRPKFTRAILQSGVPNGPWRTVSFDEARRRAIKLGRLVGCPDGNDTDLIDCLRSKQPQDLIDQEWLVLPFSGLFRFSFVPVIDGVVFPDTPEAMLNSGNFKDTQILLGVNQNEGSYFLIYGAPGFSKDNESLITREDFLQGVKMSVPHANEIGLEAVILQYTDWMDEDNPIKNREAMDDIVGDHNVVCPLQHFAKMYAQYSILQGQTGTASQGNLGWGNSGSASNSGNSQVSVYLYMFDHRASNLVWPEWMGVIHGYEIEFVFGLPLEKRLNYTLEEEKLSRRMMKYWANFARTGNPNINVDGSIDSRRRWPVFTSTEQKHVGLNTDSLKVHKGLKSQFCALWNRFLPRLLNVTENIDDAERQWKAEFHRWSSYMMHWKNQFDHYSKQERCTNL
T1 sequence (P06276 whole entry): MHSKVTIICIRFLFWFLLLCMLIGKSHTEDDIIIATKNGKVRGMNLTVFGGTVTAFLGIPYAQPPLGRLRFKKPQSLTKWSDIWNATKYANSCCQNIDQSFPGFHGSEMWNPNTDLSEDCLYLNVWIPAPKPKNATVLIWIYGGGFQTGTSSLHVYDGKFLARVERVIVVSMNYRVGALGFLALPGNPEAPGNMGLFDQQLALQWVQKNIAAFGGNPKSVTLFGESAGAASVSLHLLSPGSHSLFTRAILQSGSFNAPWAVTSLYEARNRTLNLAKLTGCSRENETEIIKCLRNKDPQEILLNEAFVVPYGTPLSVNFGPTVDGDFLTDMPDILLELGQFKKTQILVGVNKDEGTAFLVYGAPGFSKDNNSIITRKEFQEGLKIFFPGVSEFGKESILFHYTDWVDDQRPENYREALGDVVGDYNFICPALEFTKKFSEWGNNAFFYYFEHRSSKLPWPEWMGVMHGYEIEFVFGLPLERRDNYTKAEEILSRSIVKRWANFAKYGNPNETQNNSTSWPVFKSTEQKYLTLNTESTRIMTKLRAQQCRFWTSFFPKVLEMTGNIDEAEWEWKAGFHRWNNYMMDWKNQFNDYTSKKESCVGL
Sequence of Amyloid-beta precursor protein (Homo sapiens) (P05067 whole entry): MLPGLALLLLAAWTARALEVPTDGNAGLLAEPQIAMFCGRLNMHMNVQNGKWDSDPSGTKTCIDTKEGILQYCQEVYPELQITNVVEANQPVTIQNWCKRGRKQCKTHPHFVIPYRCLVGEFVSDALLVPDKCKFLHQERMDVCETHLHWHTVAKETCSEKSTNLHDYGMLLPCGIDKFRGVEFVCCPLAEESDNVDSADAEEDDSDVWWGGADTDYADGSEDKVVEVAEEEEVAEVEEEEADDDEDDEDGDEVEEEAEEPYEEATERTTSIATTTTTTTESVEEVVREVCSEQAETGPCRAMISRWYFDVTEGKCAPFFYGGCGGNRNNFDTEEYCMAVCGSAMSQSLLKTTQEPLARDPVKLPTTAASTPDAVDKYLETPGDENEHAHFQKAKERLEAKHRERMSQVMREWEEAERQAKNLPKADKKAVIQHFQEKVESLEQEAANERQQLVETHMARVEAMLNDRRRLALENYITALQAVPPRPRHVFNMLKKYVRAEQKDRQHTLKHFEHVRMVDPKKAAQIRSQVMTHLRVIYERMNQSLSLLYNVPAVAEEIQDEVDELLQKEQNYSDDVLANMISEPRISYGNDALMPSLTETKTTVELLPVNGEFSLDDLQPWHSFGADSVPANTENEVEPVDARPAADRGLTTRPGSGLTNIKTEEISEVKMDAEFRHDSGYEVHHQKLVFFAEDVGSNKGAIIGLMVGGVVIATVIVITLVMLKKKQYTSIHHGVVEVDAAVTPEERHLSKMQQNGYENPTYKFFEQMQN
Sequence of Acetylcholinesterase (Homo sapiens, UniProt P22303) (P22303 whole entry): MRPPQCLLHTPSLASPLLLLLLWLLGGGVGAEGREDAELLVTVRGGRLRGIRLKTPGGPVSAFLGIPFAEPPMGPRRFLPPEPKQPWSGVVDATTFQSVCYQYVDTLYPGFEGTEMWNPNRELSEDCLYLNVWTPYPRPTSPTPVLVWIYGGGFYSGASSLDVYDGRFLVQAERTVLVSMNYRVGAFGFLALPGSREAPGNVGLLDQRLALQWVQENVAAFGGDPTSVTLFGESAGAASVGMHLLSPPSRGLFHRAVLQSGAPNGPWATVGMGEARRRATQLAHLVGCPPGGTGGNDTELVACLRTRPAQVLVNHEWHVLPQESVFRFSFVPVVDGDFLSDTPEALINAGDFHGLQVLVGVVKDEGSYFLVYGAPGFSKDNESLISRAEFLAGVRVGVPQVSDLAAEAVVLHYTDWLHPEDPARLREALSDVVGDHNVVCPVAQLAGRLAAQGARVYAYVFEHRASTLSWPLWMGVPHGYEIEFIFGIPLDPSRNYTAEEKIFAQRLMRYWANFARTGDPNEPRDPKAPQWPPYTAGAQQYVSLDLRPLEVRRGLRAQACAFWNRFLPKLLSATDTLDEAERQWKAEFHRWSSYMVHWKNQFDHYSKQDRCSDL
Sequence of Beta-secretase 1 (P56817 whole entry): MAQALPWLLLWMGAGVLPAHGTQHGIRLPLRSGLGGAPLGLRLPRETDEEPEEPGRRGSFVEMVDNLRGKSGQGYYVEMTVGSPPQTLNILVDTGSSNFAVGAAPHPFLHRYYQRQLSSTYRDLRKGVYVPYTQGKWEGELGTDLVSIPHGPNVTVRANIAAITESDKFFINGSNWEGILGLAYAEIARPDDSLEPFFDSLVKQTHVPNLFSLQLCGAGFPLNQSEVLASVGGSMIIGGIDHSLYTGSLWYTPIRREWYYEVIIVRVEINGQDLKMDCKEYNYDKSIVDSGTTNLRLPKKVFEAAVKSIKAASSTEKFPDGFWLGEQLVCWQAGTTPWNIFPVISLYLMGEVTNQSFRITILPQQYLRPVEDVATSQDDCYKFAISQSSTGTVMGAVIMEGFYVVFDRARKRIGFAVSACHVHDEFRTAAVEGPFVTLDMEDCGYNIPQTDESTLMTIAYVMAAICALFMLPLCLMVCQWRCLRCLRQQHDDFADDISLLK
Sequence of Acetylcholinesterase (Electrophorus electricus) (O42275 24-633 limits assumed): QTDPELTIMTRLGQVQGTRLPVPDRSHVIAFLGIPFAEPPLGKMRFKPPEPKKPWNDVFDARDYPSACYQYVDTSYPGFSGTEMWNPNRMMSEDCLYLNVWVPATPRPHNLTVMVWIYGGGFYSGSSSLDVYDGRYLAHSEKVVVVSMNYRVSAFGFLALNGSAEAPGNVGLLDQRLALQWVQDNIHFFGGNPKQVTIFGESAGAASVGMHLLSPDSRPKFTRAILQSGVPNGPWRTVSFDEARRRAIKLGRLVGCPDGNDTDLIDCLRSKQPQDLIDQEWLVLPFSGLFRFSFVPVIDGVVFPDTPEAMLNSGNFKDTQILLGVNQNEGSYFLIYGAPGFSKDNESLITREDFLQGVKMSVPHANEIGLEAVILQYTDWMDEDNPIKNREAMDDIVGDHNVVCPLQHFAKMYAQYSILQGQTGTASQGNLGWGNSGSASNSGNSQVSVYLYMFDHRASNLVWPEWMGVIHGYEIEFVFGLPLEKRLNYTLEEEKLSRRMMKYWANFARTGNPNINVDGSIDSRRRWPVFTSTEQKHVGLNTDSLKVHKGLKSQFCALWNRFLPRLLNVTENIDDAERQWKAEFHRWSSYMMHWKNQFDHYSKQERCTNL
Sequence of Cholinesterase (Equus caballus) (P81908 whole entry): as the sequence (P81908 whole entry) above

Q: With O=C(CCCCC1CCSS1)O[C@H]1C[C@H]2O[C@H](OC(=O)NCc3ccccc3)C[C@H]2O1 (stereo not given in full) as the compound, how does the IC50 (Cholinesterase [1]) read?
A: The IC50 was 150 nM.

Q: Which Activity [2] does the source give for COCCCCCCCCCCCCCCCCCCOC(=O)/C=C/c1ccc(O)c(OC)c1 here?
A: The Activity was 77.9%.

Q: For COc1cc(/C=C/C(=O)O)ccc1S, which Activity [3] is on record?
A: The Activity was 0.34.

Q: What about the IC50 [4] of the same compound?
A: The IC50 was 47.8 µM.

Q: And the IC50 [5]?
A: The IC50 was 19.9 µM.

Q: What about the IC50 [6] of the same compound?
A: The IC50 was 4.25 µM.

Q: Which Activity [7] does the source give for O=C(NCc1ccccc1)C(c1cnc2ccccc2c1)N(Cc1ccccc1)C(=O)/C=C/c1ccc(O)c(O)c1 (stereo not given) here?
A: Its Activity is 89.1%.

Q: What about the Activity [8] of the same compound?
A: Its Activity is 5.48 equiv.

Q: And the inhibition [9]?
A: Its inhibition is 66.4%.

Q: What does the source list for COc1cc(/C=C/C(=O)NCCC2CCN(Cc3ccccc3)CC2)ccc1O?
A: IC50 [10]: 34.1 µM; Activity [11]: 1.39 equiv

Q: Which results are given for COc1cc(/C=C/C(=O)O)ccc1O [FERULATE]?
A: Activity [2]: 8.9%; Activity [3]: 0.34; IC50 [4]: 64.6 µM; IC50 [5]: 16.8 µM; IC50 [6]: 37.5 µM

Q: Which IC50 [12] does the source give for O=C(/C=C/c1ccc(O)c(O)c1)Nc1cccc2ccccc12 here?
A: The IC50 was 20.8 µM.

Q: Which IC50 (Cholinesterase [1]) does the source give for CCCCNC(=O)O[C@@H]1C[C@H]2O[C@@H](OC(=O)CCCCC3CCSS3)C[C@H]2O1 (stereo not given in full) here?
A: Its IC50 is 170 nM.

Q: Which IC50 (Acetylcholinesterase [13]) does the source give for COc1ccc(/C=C/C(O)NCCCNc2c3c(nc4ccccc24)CCCC3)cc1OC (stereo not given) here?
A: Its IC50 is 90 nM.

Q: And the Activity [14]?
A: The Activity was 16.8%.

Q: What about the inhibition [15] of the same compound?
A: Its inhibition is 56.5%.

Q: For COc1cc(/C=C/C(=O)N(CCC2CCN(Cc3ccccc3)CC2)CC(=O)Nc2c(C)cccc2Cl)ccc1O, which inhibition [16] is on record?
A: The inhibition was 24.8%.

Q: What about the inhibition [17] of the same compound?
A: The inhibition was 57.3%.

Q: And the Activity [18]?
A: The Activity was 6.9 equiv.

Q: Which IC50 (Cholinesterase [19]) does the source give for COc1ccc(/C=C/C(=O)Nc2cc[n+](Cc3cccc(F)c3)cc2)cc1OC here?
A: Its IC50 is 3.1 nM.

Q: What about the inhibition [20] of the same compound?
A: The inhibition was 63.4%.

Q: And the IC50 (Cholinesterase [21])?
A: Its IC50 is 4.8 nM.

Q: For O=C(/C=C/c1ccccc1)Oc1ccc2c(c1)O[C@H](c1ccc(O)c(O)c1)[C@@H](O)C2=O, which Activity (HT-22) is on record?
A: The Activity was 40%.

Q: Which Activity (HT-22) does the source give for O=C1c2c(O)cc(O)cc2O[C@H](c2ccc(O)c(O)c2)[C@H]1O [(+)-TAXIFOLIN] here?
A: Its Activity is 10%.

Q: For COc1ccc2[nH]cc(CCNC(=O)CN(CCC3CCN(Cc4ccccc4)CC3)C(=O)/C=C/c3ccc(O)c(OC)c3)c2c1, which IC50 (Cholinesterase [22]) is on record?
A: Its IC50 is 10.4 nM.

Q: What about the Activity [18] of the same compound?
A: Its Activity is 8.71 equiv.

Q: For COC(=O)/C=C/c1ccc(OCCCCCN2CCN(CC(=O)Nc3c4c(nc5ccccc35)CCCC4)CC2)c(OC)c1, which inhibition [23] is on record?
A: The inhibition was 37.2%.

Q: For COc1ccc(/C=C/C(=O)NCCC2CCN(Cc3ccccc3)CC2)cc1O, which IC50 [10] is on record?
A: Its IC50 is 764 µM.

Q: Which IC50 [10] does the source give for COc1cc(/C=C/C(=O)NCCC2CCN(Cc3ccccc3)CC2)cc(OC)c1O here?
A: Its IC50 is 24.9 µM.

Q: What about the IC50 (Acetylcholinesterase [24]) of the same compound?
A: The IC50 was 390 nM.

Q: And the Activity [11]?
A: Its Activity is 1.78 equiv.

Q: What does the source list for COc1cc(/C=C/c2nnc(-c3ccc(C(F)(F)F)cc3)o2)ccc1O?
A: IC50 (Acetylcholinesterase [25]): 68 nM; IC50 (Cholinesterase [26]): 255 nM; Activity (SH-SY5Y): 70.45%; IC50 (Beta-secretase 1): 255 nM

Q: For O=C(/C=C/c1cc(O)c(O)c(O)c1)NCCCCCC[P+](c1ccccc1)(c1ccccc1)c1ccccc1, which IC50 (Cholinesterase [27]) is on record?
A: Its IC50 is 110 nM.

Q: Which results are given for COc1cc(/C=C/c2nnc(-c3ccc(OC(F)(F)F)cc3)o2)ccc1O?
A: IC50 (Acetylcholinesterase [25]): 92 nM; IC50 (Cholinesterase [26]): 210 nM; Activity (SH-SY5Y): 65.11%; IC50 (Beta-secretase 1): 210 nM

Q: For O=C(/C=C/c1ccc(O)c(O)c1)NCCCCCC[P+](c1ccccc1)(c1ccccc1)c1ccccc1, which IC50 (Cholinesterase [27]) is on record?
A: The IC50 was 150 nM.

Q: Which Activity [18] does the source give for CCNC(=O)O[C@@H]1C[C@H]2O[C@@H](OC(=O)CCCCC3CCSS3)C[C@H]2O1 (stereo not given in full) here?
A: Its Activity is 0.163 equiv.

Q: With COc1cc(/C=C/C(=O)O[C@H]2C[C@H]3O[C@H](OC(=O)NCc4ccccc4)C[C@H]3O2)ccc1O as the compound, how does the Activity [18] read?
A: The Activity was 0.635 equiv.

Q: Which IC50 (Acetylcholinesterase [13]) does the source give for O=C(/C=C/CCc1ccc2c(c1)OCO2)NCCCNc1c2c(nc3ccccc13)CCCC2 here?
A: The IC50 was 130 nM.

Q: What about the Activity [14] of the same compound?
A: Its Activity is 20.8%.

Q: What about the inhibition [15] of the same compound?
A: Its inhibition is 72.2%.

Q: Which IC50 (Cholinesterase [1]) does the source give for CCCCNC(=O)O[C@@H]1C[C@H]2O[C@@H](OC(=O)/C=C/c3ccc(O)c(OC)c3)C[C@H]2O1 here?
A: The IC50 was 430 nM.

Q: For C=CCc1ccc(OC(=O)/C=C/c2ccc(O)c(O)c2)c(OC)c1, which IC50 [12] is on record?
A: Its IC50 is 11.2 µM.

Q: Which results are given for O=C(NCc1ccccc1)C(c1ccnc2ccccc12)N(Cc1ccccc1)C(=O)/C=C/c1ccc(O)c(O)c1 (stereo not given)?
A: Activity [7]: > 77%; Activity [8]: 4.98 equiv
